Patent publication US20110195924A1, “Methods of Inhibiting the Interaction Between S100P and the Receptor for Advanced Glycation End-Products” (priority 2008, published 2011)

Columns and labels:
S100P = molecular target: T1, S100P (Homo sapiens, UniProt P25815); assay: S100P binding to cromolyn using affinity chromatography; settings: cromolyn coupled to AF-TOYOPEARL; control column did not retain
T1 construct: full-length human S100P cDNA (NM_005980) was cloned into the pTrcHis2 vector; made in house; host or cells: bacteria (pTrcHis2 vector, IPTG induction)
T1 sequence (P25815 1-95): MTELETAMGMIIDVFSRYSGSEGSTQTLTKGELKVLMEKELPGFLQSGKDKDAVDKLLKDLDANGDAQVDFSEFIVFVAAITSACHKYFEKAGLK
Method: Cromolyn was coupled with the amino group of AF-amino TOYOPEARL to generate a cromolyn affinity column. A negative control column was prepared by blocking the amino group. Purified S100P was added to both columns, which were then washed extensively. Protein was eluted from the columns using EGTA and subjected to sodium dodecylsulfate polyacrylamide gel electrophoresis and staining with Commassie blue. Lane 1 of the gel is the molecular weight marker; lane 2 is the eluate from the control column; and lane 3 is the eluate from the cromolyn column (arrow, S100P). The gel shown is one of three independent experiments.
Cromolyn was coupled to AF-TOYOPEARL resin as described in Shishibori, et al., Three distinct anti-allergic drugs, amlexanox, cromolyn and tranilast, bind to S100A12 and S100A13 of the S100 protein family; Biochem. J. 1999 Mar. 15;338 (Pt 3):583-9. Briefly, 0.1 grams of cromolyn was dissolved in 1 mL of N,N-dimethylformamide and added to 7 mL (5 grams wet mass) AF-TOYOPEARL. Next, 0.5 grams of N-ethyl-N-(3-dimethylaminopropyl)carbodiimide hydrochloride, suspended in 10 mL of N,N-dimethylformamide, was added to the cromolyn+AF-TOYOPEARL slurry. The pH was adjusted to 5.0, and the slurry was incubated with gentle shaking for 48 hours at 25° C. As a negative control, a column was prepared by blocking the amino group of AF-TOYOPEARL with sodium acetate and acetic anhydride. […]

NFκB promoter activity = assay: NFκB luciferase activity in vivo, orthotopic BxPC-3 tumors; design: species or system mice
Method: FIGS. 3A, 3B, and 3C show the effect of cromolyn on S100P stimulated NFκB promoter activity in pancreatic cancer cells in vitro and in vivo. Panc-1 and BxPC-3 pancreatic cancer cell lines stably expressing an NFκB luciferase reporter were examined for the effects of S100P and cromolyn. […] Means and 95% confidence intervals are shown for three independent experiments performed in triplicate. *, P=0.022, †, P<0.001, and P<0.001 versus control; #, P=0.005 versus 100 nM S100P alone. […] Means and 95% confidence intervals are shown for three independent experiments performed in triplicate. *, P=0.003, †, P<0.001 versus control. […] After 1 week, tumor growth was assessed and NFκB activity was analyzed using an IVIS system (Xenogen Corp., Alameda, Calif.) after injecting mice with D-luciferin (150 mg per kg body weight) (0 time point). The mice were treated with cromolyn (5 mg per kg body weight by intraperitoneal injection), and NFκB luciferase activity was analyzed again at 24 and 48 hours. *, P=0.005 versus control. Means and 95% confidence intervals are shown for two independent experiments (n=4 mice per group). Two-tailed two-sample (unpaired for in vitro and paired for in vivo studies) Student's t-tests were used to determine P values. To measure NFκB promoter activity in vivo, BxPC-3 cells (50,000/50 μL) stably expressing a Lenti-NFkB-luc reporter were transplanted orthotopically into the pancreas of 4-week-old male CB17 scid mice (n=4 mice per experiment). After 1 week mice were injected with D-luciferin (150 mg per kg body weight, i.p.), and basal NFκB activity was determined using the IVIS system. Subsequently, mice were injected with cromolyn (5 mg per kg body weight, i.p.), and NFκB luciferase activity was re-analyzed after 24 and 48 hours. These experiments were performed three times. To determine whether cromolyn treatment could also reduce NFκB activity in vivo, NFκB activity of BxPC-3 cells stably expressing an NFκB luciferase reporter construct that had been transplanted orthotopically into the pancreas of […] (n=4) was examined. After 1 week, NFκB luciferase activity was determined before (0 time point) and at 24 and 48 hours after a single dose of cromolyn (5 mg per kg body weight by intraperitoneal [i.p.] injection). Cromolyn administration reduced basal NFκB activity by at least 80% 24 hours after injection (0 h, mean=9.9×10^6 versus 24 h, mean=1.3×10^6 photons/sec, difference=8.6×10^6 photons/sec, 95% CI=3.1×10^6 to 1.4×10^7 photons/sec; P=0.005, FIG. 3C).

S100B with RAGE = molecular target: T2, S100B with RAGE (Homo sapiens, UniProt P04271); assay: ELISA of S100B binding to RAGE (sRAGE coated plate)
T2 sequence (P04271 1-92): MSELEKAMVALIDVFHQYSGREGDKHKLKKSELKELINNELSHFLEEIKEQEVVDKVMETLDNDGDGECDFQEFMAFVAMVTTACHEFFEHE
Source text: After removing un-bound S100B by washing with detergent, bound S100B and RAGE complex was quantified by adding HRP labeled antibody against S100B.

SKOV3 ovarian cells = assay: SKOV3 ovarian cell proliferation; format: cell-based; settings: different concentrations; 24, 48, 72 hours
Method: SKOV3 ovarian cells were cultured for up to three days in the presence of different concentrations of cromolyn, and cell proliferation was analyzed at 24, 48, and 72 hours. *, P<0.05.

In the case of `O=C(O)c1cc(=O)c2c(OCC(O)COc3cccc4oc(C(=O)O)cc(=O)c34)cccc2o1` [cromolyn, disodium 1,3-bis[(2′-carboxylatochromon-5′-yl)oxy]-2-hydroxypropane], the “retention of S100P on cromolyn affinity column” value (S100P) is reported as “retained S100P”, the “NFκB luciferase activity, difference 0 h versus 24 h” value (NFκB promoter activity; cromolyn 5 mg per kg i.p., 24 h) is reported as 8.6×10^6 photons/sec and the “NFκB luciferase activity, mean” value (NFκB promoter activity; cromolyn 5 mg per kg i.p., 24 h, 0 h mean 9.9×10^6) is reported as 1.3×10^6 photons/sec. For the same compound, the NFκB activity (NFκB promoter activity; cromolyn 5 mg per kg i.p., 48 hours after injection) was “returned to control levels”, the “reduction of basal NFκB activity” value (NFκB promoter activity; single dose cromolyn 5 mg per kg i.p., 24 hours after injection) was “at least 80%” and the “interaction of S100B with RAGE” value (S100B with RAGE) was “inhibit”. For the same compound, the “growth of SKOV3 cells” value (SKOV3 ovarian cells) was “reduced the growth”.
